According to the NIST ThermoML archive (doi:10.1016/j.jct.2019.07.013):
Numbers after ± are expanded uncertainties.

Conditions: for mass density: 100 kPa, Vibrating tube method; for mass density / electrical conductivity: Liquid; for electrical conductivity: 101.33 kPa, Direct current cell with electrodes; for Glass transition temperature: DSC

| SMILES | mass density (283.15 K) | mass density (288.15 K) | mass density (293.15 K) | electrical conductivity (293.15 K) | mass density (298.15 K) | electrical conductivity (298.15 K) | mass density (303.15 K) | electrical conductivity (303.15 K) | mass density (308.15 K) | electrical conductivity (308.15 K) | mass density (313.15 K) | electrical conductivity (313.15 K) | mass density (318.15 K) | electrical conductivity (318.15 K) | mass density (323.15 K) | electrical conductivity (323.15 K) | Glass transition temperature | Normal melting temperature (Crystal, DTA) |
| --- | --- | --- | --- | --- | --- | --- | --- | --- | --- | --- | --- | --- | --- | --- | --- | --- | --- | --- |
| C=CCCn1cc[n+](CCCC)c1.[Br-] [1-(3-butenyl)-3-butylimidazolium bromide] | 1229.25 ± 6.8 kg/m3 | 1225.9 ± 6.7 kg/m3 | 1222.43 ± 6.7 kg/m3 | 0.00255 ± 0.00018 S/m | 1218.74 ± 6.7 kg/m3 | 0.00445 ± 0.00031 S/m | 1214.96 ± 6.7 kg/m3 | 0.00733 ± 0.00051 S/m | 1211.48 ± 6.7 kg/m3 | 0.0114 ± 0.0008 S/m | 1207.96 ± 6.6 kg/m3 | 0.0175 ± 0.0012 S/m | 1204.4 ± 6.6 kg/m3 | 0.0256 ± 0.0018 S/m | 1200.81 ± 6.6 kg/m3 | 0.0366 ± 0.0026 S/m | -49.00 ± 1.2 °C | – |
| C=CCCn1cc[n+](C)c1.[Br-] [1-(3-butenyl)-3-methylimidazolium bromide] | 1354.24 ± 15 kg/m3 | 1350.42 ± 15 kg/m3 | 1346.67 ± 14 kg/m3 | 0.0126 ± 0.00089 S/m | 1343.07 ± 14 kg/m3 | 0.0214 ± 0.0015 S/m | 1339.41 ± 14 kg/m3 | 0.0343 ± 0.0024 S/m | 1335.7 ± 14 kg/m3 | 0.0522 ± 0.0037 S/m | 1331.9 ± 14 kg/m3 | 0.0772 ± 0.0054 S/m | 1328.14 ± 14 kg/m3 | 0.116 ± 0.0081 S/m | 1324.34 ± 14 kg/m3 | 0.162 ± 0.011 S/m | -49.60 ± 1.2 °C | – |
| O [water] | 999.7 ± 0.05 kg/m3 | 999.05 ± 0.05 kg/m3 | – | – | – | – | – | – | – | – | 992.31 ± 0.06 kg/m3 | – | 990.42 ± 0.06 kg/m3 | – | 988.3 ± 0.06 kg/m3 | – | – | – |
| C=CCCn1cc[n+](CC)c1.[Br-] [1-(3-butenyl)-3-ethylimidazolium bromide] | 1305.11 ± 5.7 kg/m3 | 1301.34 ± 5.7 kg/m3 | 1297.64 ± 5.7 kg/m3 | 0.014 ± 0.00098 S/m | 1294.11 ± 5.6 kg/m3 | 0.0226 ± 0.0016 S/m | 1290.54 ± 5.6 kg/m3 | 0.0353 ± 0.0025 S/m | 1286.92 ± 5.6 kg/m3 | 0.0524 ± 0.0037 S/m | 1283.26 ± 5.6 kg/m3 | 0.0747 ± 0.0052 S/m | 1279.57 ± 5.6 kg/m3 | 0.12 ± 0.0084 S/m | 1275.88 ± 5.6 kg/m3 | 0.162 ± 0.011 S/m | -63.48 ± 1.2 °C | 70.68 ± 1.1 °C |
| CCCCCC[n+]1ccn(C)c1.O=S(=O)([N-]S(=O)(=O)C(F)(F)F)C(F)(F)F | 1386 ± 5 kg/m3 | 1381.41 ± 5 kg/m3 | 1376.82 ± 5 kg/m3 | – | 1371.8 ± 5 kg/m3 | – | 1367.65 ± 5 kg/m3 | – | 1363.1 ± 5 kg/m3 | – | 1357.5 ± 5 kg/m3 | – | 1352.61 ± 5 kg/m3 | – | 1349.44 ± 5 kg/m3 | – | – | – |
